Experimental data published in ChEMBL document CHEMBL1140202, “A novel cell-penetrating peptide sequence derived by structural minimization of a snake toxin exhibits preferential nucleolar localization” (J Med Chem, 2008).
Where a SMILES comes first, the peptide text is derived from it. [ ]: non-standard residue; d: D form. Ahx = NCCCCCC(=O)O

What was measured:
HeLa [1] = test: Toxicity against human HeLa cells upto 100 uM after 24 hrs by MTT assay; format: cell-based
HeLa [2] = test: Drug penetration in human HeLa cells at 15 to 50 uM by time-lapsed confocal microscopy relative to control; format: ADME, cell-based
HeLa [3] = test: Cellular uptake in human HeLa cells assessed as drug translocation through nucleolar membrane by time-lapsed confocal microscopy; format: ADME, cell-based

Molecule | Activity (HeLa [1]) | Drug uptake (HeLa [2]) | Activity (HeLa [3])
H-YKQCHKKGGKKGSG-OH | Non-toxic | 50% | 
H-GSGKKGGKKHCQKY-OH | Non-toxic |  | 
NCCCC[C@H](NC(=O)CCCCCNC(=O)CNC(=O)CNC(=O)[C@H](CCCCN)NC(=O)[C@H](CCCCN)NC(=O)[C@H](Cc1cnc[nH]1)NC(=O)[C@H](CS)NC(=O)[C@H](CCC(N)=O)NC(=O)[C@H](CCCCN)NC(=O)[C@@H](N)Cc1ccc(O)cc1)C(=O)N[C@@H](CCCCN)C(=O)NCC(=O)N[C@@H](CO)C(=O)NCC(=O)O (H-YKQCHKKGG[Ahx]KKGSG-OH) | Non-toxic | 50% | Dose-dependent effect and tde
H-GSGKKGGKKICQKY-OH | Non-toxic |  | 
